Laboratory results published in US20030073812A1, “Non-endogenous, constitutively activated versions of plant G protein-coupled receptor: GCR1” (priority 2001, published 2003).

Columns and labels:
[1] = tested on: non-endogenous, constitutively activated version of GCR1, R271P, BY-2 cells; test: Thymidine incorporation in synchronized BY-2 cells, constitutively activated GCR1 R271P; assay type: cell-based, tobacco (Nicotiana tabacum); settings: 3 μM and 10 μM ABA; BY-2 cells with R271P GCR1; measured over time; FIG. 11B
Description: (§1) Agrobacterium tumefaciens were transformed with the pMON-GCR1 plasmid and used to produce transgenic BY-2 cell lines. BY-2 cells were transformed according to the method disclosed in An, G. Plan Physiol. 79, 568-570 (1985). The selected transgenic alli were grown in the dark on selective medium at the 24° C. and transferred to fresh medium every 4 week. Liquid cultures were obtained for the different transgenic lines and synchronization was achieved by a 24-h subculture in 5 mg/liter aphidicolin. See, Combettes, B. et al., Methods Cells Sci., 21, 109-121 (1991).
(§2) DNA synthesis is measured by incubating 1 ml samples of the synchronized cell suspension with 1 μCi of [^3H] thymidine for 20 minutes at 27° C. in Eppendorf microtubes with gentle shaking. Cells were collected by centrifugation for 5 minutes at 1,800× g, and the pellet was frozen in dry ice. DNA was extracted with Plant DNAzol Reagent (GIBCO/BRL), resuspended in water, and the [^3H] radioactivity was determined with a scintillation counter.
(§3) To determine the effect of the non-endogenous, constitutively activated version of GCR1, […], on the cell cycle, control cell (empty vector), wild-type GCR1 (“wt”) and R271P overexpressing BY-2 cells were synchronized with aphidicolin for 24 h, and, after removal of the cell cycle blocker, thymidine incorporation was measured. (See, FIG. 10). […]

[2] = tested on: wild-type GCR1 ("wt") BY-2 cells; test: Thymidine incorporation in synchronized BY-2 cells, wild-type GCR1; assay type: cell-based, tobacco (Nicotiana tabacum); settings: 3 μM and 10 μM ABA; BY-2 cells with wild-type GCR1; measured over time; FIG. 11A
Description: as §1, §2, §3

CC1=CC(=O)CC(C)(C)C1(O)/C=C/C(C)=C\C(=O)O (centres unmarked) [ABA, Abscissic Acid]
thymidine incorporation (DNA synthesis) [1]: not affected
thymidine incorporation (DNA synthesis) [2]: decreases thymidine incorporation
